The results in this text go back to patent US20030187023A1, “Sulfone derivatives, process for their production and use thereof” (priority 2000, published 2003).

The target of the assay is human FXa (Homo sapiens, UniProt P00742). The assay is described as follows: Human activated coagulation factor X (FXa) inhibiting effect. Conditions: human FXa (0.3 unit/ml), substrate S-2765, 37° C., tris buffer pH 8.3, absorbance at 405 nm. In kind it is biochemical. The protocol:
(1) Human Activated Coagulation Factor X (FXa) Inhibiting Effect
Method: A cuvette was charged with 225 μl of 0.05 M tris buffer (pH 8.3) containing 0.145 M sodium chloride and 2 mM calcium chloride, 5 μl of a sample (test compound dissolved in dimethyl sulfoxide) and 10 μl of human FXa (0.3 unit/ml), which were reacted at 37° C. for 10 minutes and then combined with 10 μl of a substrate (3 mM, S-2765) and further reacted at 37° C. for 10 minutes. Then the reaction was terminated by adding 25 μl of 50% aqueous acetic acid, and the change in the absorbance at 405 nm was determined using a spectrophotometer to calculate the concentration at which the FXa effect was inhibited by 50% (IC50).

As usually defined, the IC50 is the point on the concentration scale where inhibition reaches its midpoint. A higher IC50 goes with weaker potency in that assay.

human FXa, sequence (P00742 235-488 limits assumed): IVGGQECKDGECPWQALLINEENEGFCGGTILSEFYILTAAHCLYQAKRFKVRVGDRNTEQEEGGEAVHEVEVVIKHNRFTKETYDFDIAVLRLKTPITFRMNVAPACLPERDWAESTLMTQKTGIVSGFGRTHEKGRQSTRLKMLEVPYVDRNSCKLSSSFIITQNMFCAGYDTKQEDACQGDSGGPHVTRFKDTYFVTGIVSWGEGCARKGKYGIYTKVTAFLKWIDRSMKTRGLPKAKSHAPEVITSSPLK
human FXa, sequence (P00742 41-179 partner limits assumed): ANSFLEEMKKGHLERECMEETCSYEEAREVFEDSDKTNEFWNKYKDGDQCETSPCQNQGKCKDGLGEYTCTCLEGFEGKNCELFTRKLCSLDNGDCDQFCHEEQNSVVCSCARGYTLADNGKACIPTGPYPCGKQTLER

Molecule `Cc1cc(N2CCC(N(C)C(=O)CCS(=O)(=O)c3ccc4cc(Cl)ccc4c3)CC2)cc(C)n1` [Example 118, 3-(6-Chloro-2-naphthyl)sulfonyl-N-[1-(2,6-dimethyl-4-pyridyl)-4-piperidyl]-N-propanamide] gave a concentration for half-maximal inhibition (IC50) of 63 nM.

Consider `CN(CCCS(=O)(=O)c1ccc2cc(Cl)ccc2c1)C(=O)C1CCN(c2ccncc2)CC1` [Example 5, N-[3-(6-Chloro-2-naphthyl)sulfonylpropyl]-N-methyl-1-(4-pyridyl)-4-piperidinecarboxamide], for which the midpoint of inhibition, the IC50, lay at 95 nM. `CC(=O)N(C)CCN(C(=O)CCS(=O)(=O)c1ccc2cc(Cl)ccc2c1)C1CCN(c2ccnc(C)c2)CC1` [Example 75, N-[2-(N-Acetyl-N-methylamino)ethyl]-3-(6-chloro-2-naphthyl)sulfonyl-N-[1-(2-methyl-4-pyridyl)-4-piperidyl]propanamide] showed an IC50 of 59 nM.

For the molecule `Cc1cc(N2CCC(N(CCC(=O)N3CC[S+]([O-])CC3)C(=O)CCS(=O)(=O)c3ccc4cc(Cl)ccc4c3)CC2)ccn1` [Example 68, 3-(6-Chloro-2-naphthyl)sulfonyl-N-[1-(2-methyl-4-pydiryl)-4-piperidyl]-N-[3-oxy-3-(1-oxothiomorpholin-4-yl)propyl]propionamide], the IC50 amounted to 34 nM. The same measure for `CS(=O)(=O)NCCN(C(=O)CCS(=O)(=O)c1ccc2cc(Cl)ccc2c1)C1CCN(c2ccncc2)CC1` [Example 55, 3-(6-Chloro-2-naphthyl)sulfonyl-N-(2-methylsulfonylaminoethyl)-N-[1-(4-pyridyl)-4-piperidyl]propanamide]: 40 nM; for `Cc1cc(N2CCC(N(Cc3ccccn3)C(=O)CCS(=O)(=O)c3ccc4cc(Cl)ccc4c3)CC2)ccn1` [Example 129, 3-(6-Chloro-2-naphthyl)sulfonyl-N-[1-(2-methyl-4-pyridyl)-4-piperidyl]-N-(2-pyridyl)methylpropanamide]: 66 nM; for “4-(6-Chloro-2-naphthyl)sulfonyl-N-methyl-N-[1-(4-pyridyl)-4-piperidyl]propanamide [Example 31]”: 50 nM. The same measure for `CCOC(=O)CCN(C(=O)CCS(=O)(=O)c1ccc2cc(Cl)ccc2c1)C1CCN(c2ccnc(C)c2)CC1` [Example 67, Ethyl 3-[N-[3-(6-chloro-2-naphthyl)sulfonylpropanoyl]-N-[1-(2-methyl-4-pyridyl)-4-piperidyl]amino]propionate]: 25 nM; for “4-(6-Bromo-2-naphthyl)sulfonyl-N-methyl-N-[1-(2-methyl-4-pyridyl)-4-piperidyl]propanamide [Example 64]”: 36 nM; for `CCOC(=O)CCN(C(=O)CCS(=O)(=O)c1ccc2cc(Cl)ccc2c1)C1CCN(c2ccncc2)CC1` [Example 34, Ethyl 3-[N-[3-(6-chloro-2-naphthyl)sulfonylpropioyl]-N-[1-(4-pyridyl)-4-piperidyl]amino]propionate]: 37 nM.

The molecule “4-(6-Chloro-2-naphthyl)sulfonyl-N-methyl-N-[1-(2-methyl-4-pyridyl)-4-piperidinyl]propanamide [Example 42]” gave an IC50 of 61 nM. Turning to `CC(=O)NCCN(C(=O)CCS(=O)(=O)c1ccc2cc(Cl)ccc2c1)C1CCN(c2ccncc2)CC1` [Example 54, N-(2-Acetylaminoethyl)-3-(6-chloro-2-naphthyl)sulfonyl-N-[1-(4-pyridyl)-4-piperidyl]propanamide], the IC50 was 39 nM.

Turning to `CCOC(=O)CN(C(=O)CCS(=O)(=O)c1ccc2cc(Cl)ccc2c1)C1CCN(c2ccncc2)CC1` [Example 33, Ethyl 2-[N-[3-(6-chloro-2-naphthyl)sulfonylpropioyl]-N-[1-(4-pyridyl)-4-piperidyl]amino]acetate], 55 nM corresponded to half-maximal inhibition (IC50). As to “N-(2-Aminoethyl)-3-(6-chloro-2-naphthyl)sulfonyl-N-[1-(2-methyl-4-pyridyl)-4-piperidyl]propanamide ditrifluoroacetate [Example 53]”, the midpoint of inhibition, the IC50, lay at 95 nM. With `CC(=O)NCCN(C(=O)CCS(=O)(=O)c1ccc2cc(Cl)ccc2c1)C1CCN(c2ccnc(C)c2)CC1` [Example 52, N-(2-Acetylaminoethyl)-3-(6-chloro-2-naphthyl)sulfonyl-N-[1-(2-methyl-4-pyridyl)-4-piperidyl]propanamide], half-maximal inhibition (IC50) required 49 nM. The value for `COC(=O)CN(CCCS(=O)(=O)c1ccc2cc(Cl)ccc2c1)C(=O)C1CCN(c2ccncc2)CC1` [Example 14, Methyl 2-[N-[3-(6-chloro-2-naphthyl)sulfonylpropyl]-N-[[1-(4-pyridyl)-4-piperidinyl]carbonyl]amino]acetate] was 60 nM.
